Test results published in PubChem BioAssay (NCI).
Where “and” joins values, the source holds several entries; their conditions need not be identical. Equal entries are not always repeated.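 Briefly, cells in 96-well plates were exposed to five compound concentrations for 48 h, and endpoints were estimated by linear interpolation. GI50: concentration for 50% inhibition of growth. At the TGI there is no net growth.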

What was measured:
Experiment in all cases: DTP human tumour cell line panel, 48 h
SK-OV-3 ovarian = system: SK-OV-3 ovarian
OVCAR-3 ovarian = system: OVCAR-3 ovarian
HT29 colon = system: HT29 colon
SNB-19 CNS = system: SNB-19 CNS
TK-10 renal = system: TK-10 renal
SN12C renal = system: SN12C renal
RPMI-8226 leukemia = system: RPMI-8226 leukemia
HCT-116 colon = system: HCT-116 colon
NCI-H226 lung = system: NCI-H226 lung
SR leukemia = system: SR leukemia

SMILES	TGI (SK-OV-3 ovarian) [µM]	TGI (OVCAR-3 ovarian)	TGI (HT29 colon) [µM]	TGI (SNB-19 CNS) [µM]	TGI (TK-10 renal) [µM]	TGI (SN12C renal) [µM]	TGI (RPMI-8226 leukemia) [µM]	TGI (HCT-116 colon) [µM]	GI50 (NCI-H226 lung) [µM]	TGI (NCI-H226 lung) [µM]	GI50 (SK-OV-3 ovarian) [µM]	GI50 (OVCAR-3 ovarian) [µM]	GI50 (HT29 colon) [µM]	GI50 (SNB-19 CNS) [µM]	GI50 (TK-10 renal) [µM]	GI50 (SN12C renal) [µM]	GI50 (RPMI-8226 leukemia) [µM]	GI50 (HCT-116 colon) [µM]	GI50 (SR leukemia) [µM]	TGI (SR leukemia) [µM]
Clc1cccc(C2N3CCCCC3[C@@H]3c4[nH]c5ccccc5c4CCN23)c1 (some centres undefined)	> 100	> 100 µM	34.2	> 100	> 100	26.5	81.8	30.8												
Cc1cc(C)c(-c2c(N)cc(Br)cc2Br)c(N)c1	14.3	8.74 µM	13.1	26.4	20.5	21.9	19.6	15.6	11.8	26.5	3.53	3.09	3.49	6.68	7.17	7.41	5.19	4.35		
CC(=O)[CH-]C(=O)c1ccccc1.CC(=O)[CH-]C(=O)c1ccccc1.O=S(=O)([O-])c1cc([O-])c2c([O-])cc(S(=O)(=O)[O-])cc2c1.[Na+].[Zr+4]	> 100	> 100 µM	> 100	> 100		> 100	> 100	> 100	30.4	90.9	> 100	> 100	> 100	35.3		97.3	> 100	> 100		
O=C(O)C1[O][Sb][O]C(C(=O)O)C1O (centres undefined)		> 100 µM	> 100	> 100	> 100	> 100		> 100	> 100	> 100		> 100	> 100	> 100	> 100	> 100		> 100	> 100	> 100
Cc1cccc(C)c1N1C(=O)C(=O)C(c2nc3ccccc3s2)/C(=N\N)C1=O (centres undefined)	> 100	> 100 µM	> 100	> 100	> 100	> 100	> 100	> 100		> 100										
O=c1c(Cl)c(Cl)cnn1CCCl	21.7	11.9 µM	10.8	16.4	30.3	25.5	> 47.1	17		52.4										
COC(=O)c1cc2c3ccccc3n3c2c(n1)-c1[nH]c2ccccc2c(=O)c1C3	> 100	> 100 µM	> 100	> 100	45.9	> 100		> 100			19.6	> 100	> 100	26.3	23	> 100		21	17.3	96.9
COc1ccc(S(=O)(=O)N(CC(=O)O)c2ccccc2)cc1	> 100	> 100 µM	> 100	> 100	> 100	> 100	> 100													
CCCCCCCCCC[C@H](O)[C@H](O)CC[C@@H](O)[C@H]1CC[C@@H]([C@H]2CC[C@H](CCCCCCC[C@@H](O)CC3=C[C@H](C)OC3=O)O2)O1		3.42 µM and 30.9 µM	5.64		> 100	74.8	50.4	61.6	21.2			11.8		29.5	36.3	25.3	16.6	0.966		
CC(=O)[CH-]C(=O)c1ccccc1.CC(=O)[CH-]C(=O)c1ccccc1.CC(=O)[CH-]C(=O)c1ccccc1.[Nd+3].[OH3+]	99	> 100 µM	> 100	> 100	> 100	> 100	> 100	> 100	> 100	> 100	31.7	45.7	30	> 100	> 100	42.3	46.6	46.7		
CCCCCCCC/C=C/CCCCCCCC1=NC(C)(C)CN1CCO	24.2	9 µM	3.1	21.5	3.94	18	4.31	2.99	12.6	32.8	9.97	4.52	1.51	6.26	1.91	4.7	2.02	1.59		
C=CCC(N[C@@H](CO)c1ccccc1)c1cn(C(=O)OCC)c2ccccc12 (some centres undefined)	> 100	31.7 µM	62.7		73.6	39.2	52.3	29.3	23.1	48.7	49.1	15.8	23.3		23.2	21.4	17.9	15.5		
